According to PubChem BioAssay (NCI):
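Interpolation was linear, between the two tested concentrations surrounding the appropriate level; five concentrations were tested over 48 hours in 96-well plates. GI50 marks 50% less growth. Definition used: TGI = concentration required for complete inhibition of growth.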

What was measured:
Assay in all cases: growth of human tumour cells (NCI), 48 h
BT-549 breast = tested on: BT-549 breast
IGROV1 ovarian = tested on: IGROV1 ovarian
KM12 colon = tested on: KM12 colon
MALME-3M melanoma = tested on: MALME-3M melanoma
MDA-MB-231 breast = tested on: MDA-MB-231 breast
MDA-MB-435 = tested on: MDA-MB-435
NCI-H23 lung = tested on: NCI-H23 lung
NCI-H460 lung = tested on: NCI-H460 lung
OVCAR-3 ovarian = tested on: OVCAR-3 ovarian
U251 CNS = tested on: U251 CNS

SMILES | GI50 (BT-549 breast) [µM] | TGI (BT-549 breast) [µM] | GI50 (IGROV1 ovarian) [µM] | TGI (IGROV1 ovarian) [µM] | GI50 (KM12 colon) [µM] | TGI (KM12 colon) [µM] | GI50 (MALME-3M melanoma) [µM] | TGI (MALME-3M melanoma) [µM] | GI50 (MDA-MB-231 breast) [µM] | TGI (MDA-MB-231 breast) [µM] | GI50 (MDA-MB-435) [µM] | TGI (MDA-MB-435) [µM] | GI50 (NCI-H23 lung) [µM] | TGI (NCI-H23 lung) [µM] | GI50 (NCI-H460 lung) [µM] | TGI (NCI-H460 lung) [µM] | GI50 (OVCAR-3 ovarian) [µM] | TGI (OVCAR-3 ovarian) [µM] | GI50 (U251 CNS) [µM] | TGI (U251 CNS) [µM]
COC(=O)[C@@H](NC(=O)[C@@H](OC)[C@@H]1Cc2cc3cc(OC4CC(OC5CC(O)C(O)C(C)O5)C(O)C(C)O4)c(C)c(O)c3c(O)c2C(=O)[C@H]1OC1CC(OC2CC(OC3CC(C)(O)C(O)C(C)O3)C(O)C(C)O2)C(O)C(C)O1)C(C)C (stereo partly drawn) | 0.184 | 2.63 | 0.101 | > 32.5 | 0.154 | > 32.5 | 0.0763 | 1.43 | 0.192 | 19.9 | 0.13 | > 32.5 | 0.144 | 13.5 | 0.111 | 5.7 | 0.165 | > 32.5 | 0.106 | 1.6
COc1cc(NC(C)CCCN)c2nccc(C)c2c1OC (stereo not drawn) | 16 | 30.2 | 4.01 | 22.7 | 16.7 | 35.1 | 2.84 | 9.84 | 8.18 | 25.3 | 17.1 | 32.7 | 4.21 | 22 | 14.1 | 29.5 | 3.17 | 10.1 | 14.1 | 27.4
N#CC(C(=O)/C(=N/Nc1nc(=S)[nH]n1N)C(C#N)c1ccccc1)c1ccccc1 (stereo not drawn) | – | > 100 | – | > 100 | – | > 100 | – | > 100 | – | > 100 | – | > 100 | – | > 100 | – | > 100 | – | > 100 | – | > 100
CCOC(=O)N1CCN(C(=O)c2ccc(C(F)(F)F)nc2Nc2cc(Cl)ccc2C)CC1 | 19.2 | 73.2 | 1.38 | 59.7 | 11.2 | 31.2 | 12 | 41 | 5.22 | 21.9 | 5.86 | 26.7 | 14.1 | 74.5 | 16.2 | 33.6 | 8.85 | 47.2 | 27.1 | > 100
COc1cc2c(cc1OC)C13CCN4CC5=CCOC6CC(=O)N2C1C6C5CC43O (stereo not drawn) | – | > 100 | – | > 100 | – | > 100 | – | > 100 | – | > 100 | – | > 100 | – | > 100 | – | > 100 | – | > 100 | – | > 100
O=C(O)c1cc(O)c2c(c1)C(C1c3cc(C(=O)O)cc(O)c3C(=O)c3c(OC4OC(CO)C(O)C(O)C4O)cccc31)c1cccc(OC3OC(CO)C(O)C(O)C3O)c1C2=O (stereo not drawn) | > 100 | > 100 | > 100 | > 100 | > 100 | > 100 | > 100 | > 100 | > 100 | > 100 | > 100 | > 100 | > 100 | > 100 | > 100 | > 100 | > 100 | > 100 | > 100 | > 100
COc1ccc(CNc2c3ccccc3nc3ccccc23)cc1OC | 3.15 | 12.2 | 2.3 | 6.55 | 3.65 | 15.5 | 1.95 | 4.98 | 2.37 | 7.32 | 2.93 | 10 | 2.13 | 7.47 | 2.49 | 6.51 | 2.64 | 8.39 | 2.98 | 13.6
Cc1n(Cc2ccc3ccccc3c2)cc[n+]1Cc1ccc2ccccc2c1 | 0.929 | 3.01 | 0.797 | 2.87 | 0.592 | 2.04 | 0.627 | 2.56 | 1.03 | 2.43 | 0.544 | 2.38 | 0.717 | 2.93 | 1.59 | 10.7 | 0.521 | 2.06 | 0.818 | 7.98
Cc1c(C2Nc3ccccc3C2C)[nH]c2ccccc12 (stereo not drawn) | 13.8 | 34.5 | 2.96 | 27.3 | 7.45 | 29.1 | 10.6 | 24.8 | 5.37 | 21.4 | 10.6 | 24.6 | 14.5 | 32.1 | 0.43 | 18.3 | 11.6 | 27.2 | – | –
O=C(O)c1ccccc1-c1ccccc1C(=O)Nc1ccc2c(c1)Cc1cc(F)ccc1-2 | – | 40.2 | – | > 100 | – | > 100 | – | 88.7 | – | 83.2 | – | > 100 | – | 36.5 | – | 68.2 | – | 45.6 | – | 50.2
O=C(CCCN1CC=C(n2c(=O)[nH]c3ccccc32)CC1)c1ccc(F)cc1 | 24.9 | 86.8 | > 100 | > 100 | 30.7 | > 100 | 38.9 | > 100 | 62.8 | > 100 | 18.1 | 49.5 | 37.6 | > 100 | 35.2 | > 100 | 31.4 | > 100 | – | –
CC(=O)Oc1ccccc1C(=O)N=C1[Se]CCCN1C(=O)c1ccccc1OC(C)=O | 2.29 | 6.66 | 2.83 | 11.6 | – | – | 2.31 | 4.9 | 2.22 | 5.02 | 1.98 | 4.76 | 2.72 | 7.78 | 2 | 5.5 | – | – | 1.64 | 3
CC(=O)c1c(CBr)n([O-])c2ccccc2[n+]1=O | 9.61 | 21.5 | 13.6 | 29.2 | 15 | 29.2 | 4.48 | 17.4 | 12.2 | 25 | 12.5 | 25.6 | 15.7 | 32.6 | – | – | 3.14 | 7.67 | 16.2 | 29.9
CCN(CC)CCNCC(=O)Oc1ccc(/C=C/C(=O)CC(=O)/C=C/c2ccc(OC(=O)CNCCN(CC)CC)c(OC)c2)cc1OC | 2.29 | 5.95 | 4.04 | 8.94 | 3.5 | 31.6 | 2.57 | 7.65 | 4.94 | 29.3 | 2.48 | 12.4 | – | – | 3.41 | 22.2 | 4.11 | > 100 | 3.83 | 16.2
